According to ChEMBL document CHEMBL1201862, “PubChem BioAssay data set” (2004):
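Cultured in 96-well plates, cells were exposed to test compound for 48 hours across five concentrations. GI50 marks 50% less growth.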 Activity calls are given as the source filed them. No stated cut-off is given here; in the data, active = GI50 up to about 1.1 µM and inactive = higher.

Tests used:
Test in all cases: inhibition of tumour cell growth, NCI panel, 48 h
OVCAR-5 = test system: OVCAR-5
HOP-62 = test system: HOP-62
A498 = test system: A498
SF-295 = test system: SF-295
LOX IMVI = test system: LOX IMVI
SF-268 = test system: SF-268
SR = test system: SR
BT-549 = test system: BT-549
HT-29 = test system: HT-29
PC-3 = test system: PC-3
SNB-75 = test system: SNB-75
U-251 = test system: U-251
EKVX = test system: EKVX
NCI-H522 = test system: NCI-H522
IGROV-1 = test system: IGROV-1
NCI/ADR-RES = test system: NCI/ADR-RES
HCC 2998 = test system: HCC 2998
M14 = test system: M14
T47D = test system: T47D

Measured: GI50

c1ccc(-c2c[nH]c(SC(c3ccccc3)c3ccccc3)n2)cc1
inactive: OVCAR-5 55.7 µM | HOP-62 29 µM | A498 24.7 µM | SF-295 15.2 µM | LOX IMVI 17.6 µM | SF-268 43.8 µM | SR 13.3 µM | BT-549 25.1 µM | HT-29 10.9 µM | PC-3 22.1 µM | SNB-75 32.1 µM | U-251 15 µM | EKVX 13.3 µM | NCI-H522 17.1 µM | IGROV-1 19.2 µM | NCI/ADR-RES 11.1 µM | HCC 2998 17 µM | M14 30.8 µM | T47D 8.95 µM

COc1cc(C2S/C(=C/c3ccccc3)C(=O)N2c2ccc([N+](=O)[O-])cc2)cc(OC)c1OC (stereo unspecified)
inactive: OVCAR-5 15.5 µM | HOP-62 92.7 µM | A498 73.1 µM | SF-295 58.1 µM | LOX IMVI 19 µM | SF-268 > 83.9 µM | SR 9.27 µM | BT-549 44.9 µM | HT-29 > 39.6 µM | PC-3 > 100 µM | SNB-75 > 100 µM | U-251 > 100 µM | EKVX 39.6 µM | NCI-H522 > 63.5 µM | IGROV-1 > 20.6 µM | NCI/ADR-RES > 80.4 µM | HCC 2998 > 100 µM | M14 26.1 µM | T47D 40.9 µM

C=C(C)C(CC=C(C)C)Cc1c(O)cc(OC)c2c1OC(c1ccc(O)cc1O)C(O)C2=O (stereo unspecified)
inactive: OVCAR-5 17.7 µM | HOP-62 17.3 µM | A498 16.5 µM | SF-295 15 µM | LOX IMVI 20 µM | SF-268 18.6 µM | SR > 100 µM | BT-549 14.9 µM | HT-29 20.7 µM | PC-3 13.5 µM | SNB-75 17.2 µM | U-251 14.5 µM | EKVX 16.3 µM | NCI-H522 18.9 µM | IGROV-1 14.6 µM | NCI/ADR-RES 22.9 µM | HCC 2998 16.8 µM | M14 22 µM | T47D 13.8 µM

Cc1ccc(S(=O)(=O)N/C(=N\O)Nc2ccc(Cl)c(Cl)c2)cc1
inactive: OVCAR-5 3.2 µM | HOP-62 14.1 µM | A498 10.3 µM | SF-295 17.2 µM | LOX IMVI 4.11 µM | SF-268 6.01 µM | SR 5.69 µM | BT-549 9.64 µM | HT-29 12.8 µM | PC-3 5.48 µM | SNB-75 5.14 µM | U-251 4.36 µM | EKVX 5.92 µM | NCI-H522 4.47 µM | IGROV-1 13.9 µM | NCI/ADR-RES 12.8 µM | HCC 2998 2.14 µM | M14 5.58 µM | T47D 11.4 µM
